For 26 compounds, EC50 and IC50 results are on record in patent publication US10030016B2 (Sunesis Pharmaceuticals, Inc., priority 2009, dated 2018).

Structures can show the parent of a compound that is named as a salt. Where two headings read alike, the source gives them in different places.

A word on the EC50: it is the concentration at which the effect is half-maximal. As a reminder, the IC50 is the midpoint of a concentration-inhibition curve. High values mean weaker potency in that assay, low ones greater potency in that assay.

Assay [1] concerns phospho-akt (Thr308) in PC-3 cells. Briefly: Inhibition of phospho-akt (Thr308) in PC-3 cells, MSD phospho-akt 308 ELISA kit. It is filed as cell-based. To be noted: 2 hours, no serum, read-out: EC50. In short, it runs like this:
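PC-3 cells were seeded overnight in growth medium with 10% FBS, then exposed to compound serially diluted threefold in serum-free medium for 2 hours. Lysates were captured overnight at 4 degrees on MSD plates and phospho-Akt Thr308 was detected electrochemiluminescently, against DMSO high and 5 μM wortmannin low controls.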
On the technique in general: In an ELISA, binding on a coated surface is turned into a signal by an enzyme label.

The target of another assay is PDK1 (Homo sapiens (Human), UniProt O15530). Briefly: PDK1 kinase assay (coupled PDK1/AKT/FAM-crosstide assay, IMAP fluorescence polarization). The class given is biochemical. In short, it runs like this: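 GST-tagged human PDK1 (aa 51-359, 0.75 nM) from insect cells activated unphosphorylated GST-AKT2 (aa 140-467–PIFtide fusion, 10 nM), which phosphorylated 100 nM FAM-crosstide; 40 μM ATP, pH 7.2 Tris/MgCl2, 30 min at 25° C. IMAP fluorescence polarization read-out; ΔmP versus compound concentration fitted with a 4-parameter curve.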
Sequence of PDK1 (O15530 51-359): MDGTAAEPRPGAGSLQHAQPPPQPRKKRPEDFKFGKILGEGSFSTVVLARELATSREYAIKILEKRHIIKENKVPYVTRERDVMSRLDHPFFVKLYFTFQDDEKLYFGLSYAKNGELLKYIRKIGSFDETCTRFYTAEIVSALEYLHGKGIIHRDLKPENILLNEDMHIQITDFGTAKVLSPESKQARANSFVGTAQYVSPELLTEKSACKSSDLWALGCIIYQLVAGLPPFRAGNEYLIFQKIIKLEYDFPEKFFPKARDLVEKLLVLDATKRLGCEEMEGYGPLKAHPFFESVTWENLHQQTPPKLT
(In fluorescence polarisation assays a small probe gives low polarisation when free and higher when bound to something large.)

[2] abbreviates: Homo sapiens, inhibition of P308 Akt in PC-3 cells using MSD.
[3] abbreviates: Homo sapiens, inhibition of P308 Akt in PC-3 cells, MSD.
[4] abbreviates: inhibition of phospo-PDK1 in vitro.
Setting [5] is: Homo sapiens, PC-3, 2 h, inhibition of P308 Akt in PC-3 cells using MSD.

Take `C[C@H](NC(=O)c1cc(C#N)cnc1NCc1ccc(-c2cnc(NCCCN(C)C)cn2)cc1)c1ccc(F)cc1` [Example 225, 5-Cyano-2-{4-[5-(3-dimethylamino-propylamino)-pyrazin-2-yl]-benzylamino}-N-[(S)-1-(4-fluoro-phenyl)-ethyl]-nicotinamide]: the EC50 in assay [1] (setting [2]) is over 10000 nM. The compound further showed an IC50 on PDK1 (inhibition of PDK1 in vitro) of over 5000 nM.

Regarding `CCOc1ccnc(NCc2ccc(-c3ccc4ncnc(N)c4c3)s2)c1C(=O)NCc1ccc(F)c(F)c1` [Ex. 7.5, 2-({[5-(4-aminoquinazolin-6-yl)thiophen-2-yl]methyl}amino)-N-(3,4-difluorobenzyl)-4-ethoxypyridine-3-carboxamide], the EC50 in assay [1] (setting [3]) is over 10000 nM. Besides, the IC50 on PDK1 (setting [4]) fell in the range of 100 to 1000 nM.

For the compound `Nc1ncnc2ccc(-c3ccc(CNc4ncccc4C(=O)Nc4ccccc4Cl)s3)cc12` [Example 3.31, 2-({[5-(4-aminoquinazolin-6-yl)thiophen-2-yl]methyl}amino)-N-(2-chlorophenyl)pyridine-3-carboxamide (TFA salt)], the concentration giving a half-maximal response (EC50) in assay [1] (setting [3]) is over 10000 nM. The compound further had a 50% inhibitory concentration (IC50) against PDK1 (setting [4]) of over 5000 nM.

As for `C[C@H](NC(=O)c1cccnc1NCc1ccc(-c2ccc3ncnc(N)c3c2)s1)c1cc(F)cc(F)c1` [Example 3.62, (S)-2-(((5-(4-aminoquinazolin-6-yl)thiophen-2-yl)methyl)amino)-N-(1-(3,5-difluorophenyl)ethyl) nicotinamide (TFA salt)], in assay [1] (setting [3]), the EC50 was in the range of 1000 to 10000 nM. The same compound came in with an IC50 at PDK1 (setting [4]) of under 100 nM.

`C[C@H](NC(=O)c1cccnc1NCc1ccc(-c2ccc3nc(N)[nH]c3c2)s1)c1ccc(F)cc1` [Example 2.21, (S)-2-(((5-(2-amino-1H-benzo[d]imidazol-6-yl)thiophen-2-yl)methyl)amino)-N-(1-(4-fluorophenyl)ethyl)nicotinamide]: the EC50 in assay [1] (setting [3]) is over 10000 nM. This compound also came in with an IC50 on PDK1 (setting [4]) of 1000 to 5000 nM.

For `C[C@H](NC(=O)c1nc(C#N)cnc1NCc1ccc(-c2cnc(N)cn2)cc1)c1ccc(F)c(F)c1` [Example 376, (S)-3-(4-(5-aminopyrazin-2-yl)benzylamino)-6-cyano-N-(1-(3,4-difluorophenyl)ethyl)pyrazine-2-carboxamide], the EC50 in assay [1] (setting [2]) was under 1000 nM. In addition, the concentration for half-maximal inhibition (IC50) against PDK1 (inhibition of PDK1 in vitro) was under 100 nM.

For `Nc1n[nH]c2ncc(-c3ccc(CNc4ncc(C(F)(F)F)cc4C(=O)N4CCc5cc(F)ccc54)cc3)cc12` [Example 30, (2-(4-(3-amino-1H-pyrazolo[3,4-b]pyridin-5-yl)benzylamino)-5-(trifluoromethyl)pyridin-3-yl)(5-fluoroindolin-1-yl)methanone], the EC50 in assay [1] (setting [3]) was under 1000 nM. On PDK1 (setting [4]), this compound displayed an IC50 of under 100 nM.

Regarding `Cn1cnc(CNC(=O)c2cc(C(F)(F)F)cnc2NCc2ccc(-c3cnc4[nH]nc(N)c4c3)cc2)c1` [Example 270, 2-(4-(3-amino-1H-pyrazolo [3,4-b]pyridin-5-yl)benzylamino)-N-((1-methyl-1H-imidazol-4-yl)methyl)-5-(trifluoromethyl) nicotinamide], the EC50 in assay [1] (setting [2]) was in the range of 1000 to 10000 nM. The compound further had an IC50 at PDK1 (inhibition of PDK1 in vitro) of 1000 to 5000 nM.

Consider `C[C@H](NC(=O)c1cc(C#N)cnc1NCc1ccc(-c2ccnc(C#N)c2)cc1)c1ccc(F)cc1` [Example 108, (S)-5-cyano-2-(4-(2-cyanopyridin-4-yl)benzylamino)-N-(1-(4-fluorophenyl)ethyl)nicotinamide], for which, in assay [1] (setting [2]), the EC50 is over 10000 nM. Also, the IC50 at PDK1 (inhibition of PDK1 in vitro) was over 5000 nM.

Take `O=C1Nc2cc(/C=C/CNc3ncccc3C(=O)NCc3cncc(F)c3)ccc2/C1=C/c1cnc[nH]1` [Example 15.15, 2-((E)-3-((Z)-3-((1H-imidazol-5-yl)methylene)-2-oxoindolin-6-yl)allylamino)-N-((5-fluoropyridin-3-yl)methyl) nicotinamide]: the EC50 in assay [1] (setting [3]) was under 1000 nM. Also, the IC50 against PDK1 (setting [4]) was under 100 nM.

Take `C[C@H](NC(=O)c1cccnc1NCc1ccc(-c2cn(C3CCC3)c3ncnc(N)c23)s1)c1ccc(F)cc1` [Example 345]: the EC50 in assay [1] (setting [5]) is under 1000 nM. The compound further had an IC50 on PDK1 (inhibition of PDK1 in vitro) of 100 to 1000 nM.

Regarding `C[C@H](NC(=O)c1cc(C#N)cnc1NCc1ccc(-c2ccc(N)nc2)cc1)c1ccc(F)cc1` [Example 106, (S)-2-(4-(6-aminopyridin-3-yl)benzylamino)-5-cyano-N-(1-(4-fluorophenyl)ethyl) nicotinamide], the EC50 in assay [1] (setting [2]) was under 1000 nM. For the same compound, the IC50 at PDK1 (inhibition of PDK1 in vitro) was under 100 nM.

Regarding `C[C@H](NC(=O)c1cc(C#N)cnc1NCc1ccc(-c2cnc(N)c(-c3cccc(O)c3)n2)cc1)c1ccc(F)cc1` [Example 234, 2-{4-[5-Amino-6-(3-hydroxy-phenyl)-pyrazin-2-yl]-benzylamino}-5-cyano-N-[(S)-1-(4-fluoro-phenyl)-ethyl]-nicotinamide], the EC50 in assay [1] (setting [5]) lay within 1000 to 10000 nM. The same compound gave an IC50 against PDK1 (inhibition of PDK1 in vitro) of under 100 nM.

`Nc1ncnc2ccc(-c3cccc(CNc4ncccc4C(=O)NCc4ccc(F)c(F)c4)c3)cc12` [Example 6.1, 2-(3-(4-aminoquinazolin-6-yl)benzylamino)-N-(3,4-difluorobenzyl)nicotinamide]: the EC50 in assay [1] (setting [3]) fell in the range of 1000 to 10000 nM. Further, on PDK1 (setting [4]), the IC50 was under 100 nM.

`Cc1[nH]c(/C=C2\C(=O)Nc3cc(/C=C/CNc4ncccc4C(=O)NCc4ccc(F)c(F)c4)ccc32)c(C)c1C(=O)N1CCOCC1` [Example 15.18, N-(3,4-Difluoro-benzyl)-2-((E)-3-{3-[1-[3,5-dimethyl-4-(morpholine-4-carbonyl)-1H-pyrrol-2-yl]-meth-(Z)-ylidene]-2-oxo-2,3-dihydro-1H-indol-6-yl}-allylamino)-nicotinamide]: the 50% effective concentration (EC50) in assay [1] (setting [3]) is under 1000 nM. Also, the IC50 against PDK1 (setting [4]) is under 100 nM.

As for `O=C(NCc1ccc(F)c(F)c1)c1cccnc1NCc1cc(-c2c[nH]c3ncc(-c4ccc[nH]4)cc23)ccn1` [Example 336], in assay [1] (setting [2]), the EC50 was in the range of 1000 to 10000 nM. In addition, the IC50 on PDK1 (inhibition of PDK1 in vitro) is under 100 nM.

As for `Cc1ncc(CNC(=O)c2cccnc2NCc2ccc(-c3ccc4ncnc(N)c4c3)s2)cc1F` [Example 3.67, 2-(((5-(4-aminoquinazolin-6-yl)thiophen-2-yl)methyl)amino)-N-((5-fluoro-6-methylpyridin-3-yl)methyl)nicotinamide (TFA salt)], in assay [1] (Homo sapiens, PC-3, 2 h, inhibition of P308 Akt in PC-3 cells, MSD), the EC50 is over 10000 nM. The IC50 on PDK1 (setting [4]) lay within 1000 to 5000 nM.

Take `Nc1n[nH]c2ncc(-c3ccc(CNc4ncc(C(F)(F)F)cc4C(=O)NCC4CCCC4)cc3)cc12` [Example 264, 2-(4-(3-amino-1H-pyrazolo [3,4-b]pyridin-5-yl)benzylamino)-N-(cyclopentylmethyl)-5-(trifluoromethyl) nicotinamide]: the EC50 in assay [1] (setting [2]) fell in the range of 1000 to 10000 nM. Moreover, at PDK1 (inhibition of PDK1 in vitro), the IC50 was under 100 nM.

With `C[C@H](NC(=O)c1cc(C#N)cnc1NCc1cnc(-c2cnc3[nH]ncc3c2)cn1)c1ccc(F)cc1` [Example 63, 5-Cyano-N-[(S)-1-(4-fluoro-phenyl)-ethyl]-2-{[5-(1H-pyrazolo[3,4-b]pyridin-5-yl)-pyrazin-2-ylmethyl]-amino}-nicotinamide], in assay [1] (setting [2]), the concentration giving a half-maximal response (EC50) was over 10000 nM. The IC50 against PDK1 (inhibition of PDK1 in vitro) is under 100 nM.

Turning to `Cn1ccc(NC(=O)c2cc(C(F)(F)F)cnc2NCc2ccc(-c3cnc4[nH]nc(N)c4c3)cc2)n1` [Example 307, 2-(4-(3-amino-1H-pyrazolo [3,4-b]pyridin-5-yl)benzylamino)-N-(1-methyl-1H-pyrazol-3-yl)-5-(trifluoromethyl)nicotinamide], the EC50 in assay [1] (setting [2]) is 1000 to 10000 nM. Also, the IC50 at PDK1 (inhibition of PDK1 in vitro) was 1000 to 5000 nM.

In the case of `CNc1ncc2cc(C#CCNc3ncc(C(F)(F)F)cc3C(=O)NCc3ccc(F)c(F)c3)ccc2n1` [Example 256, N-(3,4-difluorobenzyl)-2-(2-(2-(methylamino)quinazolin-6-yl)prop-2-ynylamino)-5-(trifluoromethyl)nicotinamide], the EC50 in assay [1] (setting [2]) lay in the range of 1000 to 10000 nM. The compound further showed an IC50 at PDK1 (inhibition of PDK1 in vitro) of under 100 nM.

For the compound `CC(C)Oc1cc(CNc2ncccc2C(=O)N(C)c2ccc(F)cc2)cc(-c2c[nH]c3ncc(C(=O)NC4CC4)cc23)c1` [Example 4.1.9, N-cyclopropyl-3-{3-[({3-[(4-fluorophenyl)(methyl)carbamoyl]pyridin-2-yl}amino)methyl]-5-(propan-2-yloxy)phenyl}-1H-pyrrolo[2,3-b] pyridine-5-carboxamide], the EC50 in assay [1] (setting [3]) lay within 1000 to 10000 nM. Further, the IC50 against PDK1 (setting [4]) is over 5000 nM.

Turning to `C[C@H](NC(=O)c1nccnc1NCc1ccc(-c2cnc3[nH]ncc3c2)cc1)c1ccc(F)cc1` [Example 391, 3-[4-(1H-Pyrazolo[3,4-b]pyridin-5-yl)-benzylamino]-pyrazine-2-carboxylic acid [(S)-1-(4-fluoro-phenyl)-ethyl]-amide], the EC50 in assay [1] (setting [2]) fell in the range of 1000 to 10000 nM. Further, at PDK1 (inhibition of PDK1 in vitro), the IC50 was under 100 nM.

For “2-(4-(3-amino-1H-pyrazolo [3,4-b]pyridin-5-yl) benzylamino)-N-(thiazol- 4-yl)-5-(trifluoromethyl) nicotinamide [Example 287]”, the EC50 in assay [1] (inhibition of P308 Akt in PC-3 cells using MSD) was over 10000 nM. At PDK1 (inhibition of PDK1 in vitro), this compound gave an IC50 of 100 to 1000 nM.

For the compound `O=C(NCc1ccc(F)c(F)c1)c1cccnc1NCc1ccccc1-c1c[nH]c2ncccc12` [Example 6.4, N-(3,4-difluorobenzyl)-2-{[2-(1H-pyrrolo[2,3-b]pyridin-3-yl)benzyl]amino}-pyridine-3-carboxamide], the EC50 in assay [1] (setting [3]) is over 10000 nM. The compound also registered an IC50 at PDK1 (setting [4]) of over 5000 nM.

Take `N#Cc1cnc(NCc2ccc(-c3ccc4ncnc(N)c4c3)s2)c(C(=O)NCc2ccc(F)cc2)n1` [Example 3.83, 3-(((5-(4-aminoquinazolin-6-yl)thiophen-2-yl)methyl)amino)-6-cyano-N-(4-fluorobenzyl)pyrazine-2-carboxamide (TFA salt)]: the EC50 in assay [1] (setting [3]) was under 1000 nM. In addition, at PDK1 (setting [4]), the IC50 was under 100 nM.
